Laboratory results taken from patent publication US12569454B2, “Nucleophilic chemicals useful in the treatment of cisplatin-induced sensory neuropathy and ototoxicity” (MONTEFIORE MEDICAL CENTER, priority 2018, dated 2026).

Columns and labels:
mouse = experiment: Mouse studies: open field, balance beam, functional observational battery, treadmill; format: in vivo; settings: open field observations, treadmill analysis
[1] = acute animal toxicity; cited from earlier work
[2] = 400-600 mg/kg per day for 60 days; cited from earlier work
DRG cells = experiment: Lethality of pre-formed enol-Pt complexes and Pt drugs; settings: 4 hours exposure
Protocol: (§1) DRG cells and isolated mouse hepatocytes were then exposed to enol-Pt complexes for 4 hours and the respective changes in lethality were determined.

[3] = system: isolated mouse hepatocytes; experiment: as above; settings: 4 hours exposure
Protocol: as §1

glioblastoma (U87 MG) = experiment: CisPt-induced cancer cell lethality; format: cell-based
osteosarcoma (HOS) = experiment: CisPt-induced cancer cell lethality; format: cell-based; settings: for effect on ability of CisPt to kill cancer cells (IC75): co-incubated with graded CisPt, FIG. 5C
neuroblastoma (SH-SY5) = experiment: CisPt-induced cancer cell lethality; format: cell-based
[4] = system: freshly isolated mouse hepatocytes; experiment: CisPt effect on cell viability with or without protectant; format: cell-based; settings: co-administration with CisPt, FIG. 3B
Source text: (§2) The enol compounds investigated in this study were gavinol, NAHA, and THA and as a point of comparison, the protective properties of thiol-based compounds, N-acetyl-L-cysteine (NAC) and sodium thiosulfate (STS), were also investigated.

neonatal rat DRG cells = experiment: as above; format: cell-based; settings: co-administration with CisPt, FIG. 3A
Source text: as §2

[5] = pKa of nucleophilic carbon atoms; format: physicochemical
[6] = complexes pre-incubated 30 mins

Row | Structure (SMILES) | toxicity in mouse studies (mouse) | protection against CisPt toxicity [4] | protection against CisPt toxicity (neonatal rat DRG cells) | effect on ability of CisPt to kill cancer cells (IC75) (osteosarcoma (HOS)) | also measured
1 | CC(=O)C1CCCC1=O (centres unmarked) [2-ACP, 2-acetylcyclopentanone] | not toxic |  |  |  | LD50 [1]: > 800 mg/kg; systemic toxicity [2]: low incidence of systemic toxicity
2 | N.N.O=C([O-])C1(C(=O)[O-])CCC1.[Pt+2] [CarboPt, carboplatin] |  |  |  |  | cytotoxicity relative to that caused by CisPt or OxaliPt (DRG cells): intermediate cytotoxicity; cytotoxicity (lethality) (DRG cells; [6]): substantial concentration-dependent DRG and hepatocyte lethality; cytotoxicity relative to that caused by CisPt or OxaliPt [3]: intermediate cytotoxicity; cytotoxicity (lethality) [3, 6]: substantial concentration-dependent DRG and hepatocyte lethality; cancer cell lethality (glioblastoma (U87 MG); FIG. 6A, compared with CisPt): reduced cancer cell lethality; cancer cell lethality (osteosarcoma (HOS); FIG. 6B, compared with CisPt): reduced cancer cell lethality; cancer cell lethality (neuroblastoma (SH-SY5); FIG. 6C, compared with CisPt): reduced cancer cell lethality
3 | CC(=O)N[C@@H](CS)C(=O)O [NAC, N-acetyl-L-cysteine, reference compound] |  | only modest protection | only modest protection |  | 
4 | CC(=O)Nc1cc(O)c(C(C)=O)c(O)c1 [NAHA, 4-N-acetyl-2,6-dihydroxyacetaphenone] | not toxic | substantial cryoprotection | substantial cryoprotection | significantly lowered the respective IC75S | pKa [5]: 7.9
5 | O=S([O-])([O-])=S.[Na+].[Na+] [STS, sodium thiosulfate, reference compound] |  | only modest protection | only modest protection | did not modify CisPt-induced cancer cell toxicity | effect on ability of CisPt to kill cancer cells (IC75) (glioblastoma (U87 MG); co-incubated with graded CisPt, FIG. 5B): did not modify CisPt-induced cancer cell toxicity; effect on ability of CisPt to kill cancer cells (IC75) (neuroblastoma (SH-SY5); co-incubated with graded CisPt, FIG. 5A): did not modify CisPt-induced cancer cell toxicity
6 | CC(=O)c1c(O)cc(O)cc1O [THA, 2′,4′,6′-trihydroxyacetophenone] | not toxic | substantial cryoprotection | substantial cryoprotection |  | 
7 | CC(=O)c1c(O)cc(NC(=O)C2CCCC2=O)cc1O (centres unmarked) [gavinol, N-(4-acetyl-3,5-dihydroxyphenyl)-2-oxocyclopentane-1-carboxamide] | not toxic | substantial cryoprotection | substantial cryoprotection | significantly lowered the respective IC75S | 
